In patent US12702691B2, “Extract of an herbal composition as antimicrobial and/or antibiofilm agent” (ALPHANOSOS S.A.S., priority 2016, dated 2026):

What was measured:
[1] = test system: B-A17; assay: Planktonic growth with extract and antibiotic relative to growth without both (Example 14); type: cell-based
Method: (§1) Starting from the herbal composition, the corresponding water extracts (or processed samples) was prepared according to the previously described Method B using 2.06 g of the above herbal composition with 40 mL water with 100 g/L sucrose for water extraction and including the decantation step before filtration. In an independent water extract preparation without sucrose, it has been measured that 2.06 g/40 mL of herbal composition corresponds to 14.5 g/L as deduced from the weight of the lyophilized dry herbal extract.
(§2) In Example 14 we calculate the growth of the bacteria in presence of antibiotic and/or herbal mix relative to the growth in the absence of both antibiotic and herbal mix extract.

[2] = test system: B-A21; assay: as above; type: cell-based
Method: as §1, §2

[3] = M[20C]-576 0 μg/mL, antibiotic 3.91 μg/mL
[4] = M[20C]-576 0 μg/mL, antibiotic 7.81 μg/mL
[5] = M[20C]-576 0 μg/mL, antibiotic 15.63 μg/mL
[6] = M[20C]-576 0 μg/mL, antibiotic 31.25 μg/mL
[7] = M[20C]-576 0 μg/mL, antibiotic 62.50 μg/mL
[8] = M[20C]-576 0 μg/mL, antibiotic 125 μg/mL
[9] = M[20C]-576 0 μg/mL, antibiotic 250 μg/mL
[10] = M[20C]-576 0 μg/mL, antibiotic 500 μg/mL
[11] = M[20C]-576 0 μg/mL, antibiotic 1000 μg/mL
[12] = M[20C]-576 0 μg/mL, antibiotic 2000 μg/mL
[13] = M[20C]-576 0 μg/mL, antibiotic 4000 μg/mL
[14] = M[20C]-576 90.6 μg/mL, antibiotic 3.91 μg/mL
[15] = M[20C]-576 90.6 μg/mL, antibiotic 7.81 μg/mL
[16] = M[20C]-576 90.6 μg/mL, antibiotic 15.63 μg/mL
[17] = M[20C]-576 90.6 μg/mL, antibiotic 31.25 μg/mL
[18] = M[20C]-576 90.6 μg/mL, antibiotic 62.50 μg/mL
[19] = M[20C]-576 90.6 μg/mL, antibiotic 125 μg/mL
[20] = M[20C]-576 90.6 μg/mL, antibiotic 250 μg/mL
[21] = M[20C]-576 90.6 μg/mL, antibiotic 500 μg/mL
[22] = M[20C]-576 90.6 μg/mL, antibiotic 1000 μg/mL
[23] = M[20C]-576 90.6 μg/mL, antibiotic 2000 μg/mL
[24] = M[20C]-576 90.6 μg/mL, antibiotic 4000 μg/mL
[25] = M[20C]-576 181.3 μg/mL, antibiotic 3.91 μg/mL
[26] = M[20C]-576 181.3 μg/mL, antibiotic 7.81 μg/mL
[27] = M[20C]-576 181.3 μg/mL, antibiotic 15.63 μg/mL
[28] = M[20C]-576 181.3 μg/mL, antibiotic 31.25 μg/mL
[29] = M[20C]-576 181.3 μg/mL, antibiotic 62.50 μg/mL
[30] = M[20C]-576 181.3 μg/mL, antibiotic 125 μg/mL
[31] = M[20C]-576 181.3 μg/mL, antibiotic 250 μg/mL
[32] = M[20C]-576 181.3 μg/mL, antibiotic 500 μg/mL
[33] = M[20C]-576 181.3 μg/mL, antibiotic 1000 μg/mL
[34] = M[20C]-576 181.3 μg/mL, antibiotic 2000 μg/mL
[35] = M[20C]-576 181.3 μg/mL, antibiotic 4000 μg/mL

CN[C@H](CC(C)C)C(=O)N[C@H]1C(=O)N[C@@H](CC(N)=O)C(=O)N[C@H]2C(=O)N[C@H]3C(=O)N[C@H](C(=O)N[C@H](C(=O)O)c4cc(O)cc(O)c4-c4cc3ccc4O)[C@H](O)c3ccc(c(Cl)c3)Oc3cc2cc(c3O[C@@H]2O[C@H](CO)[C@@H](O)[C@H](O)[C@H]2O[C@H]2C[C@](C)(N)[C@H](O)[C@H](C)O2)Oc2ccc(cc2Cl)[C@H]1O [Vancomycin]
planktonic growth relative to the growth in the absence of both extract and antibiotic [1, 3]: 135%
planktonic growth relative to the growth in the absence of both extract and antibiotic [1, 4]: 118%
planktonic growth relative to the growth in the absence of both extract and antibiotic [1, 5]: 114%
planktonic growth relative to the growth in the absence of both extract and antibiotic [1, 6]: 117%
planktonic growth relative to the growth in the absence of both extract and antibiotic [1, 7]: 115%
planktonic growth relative to the growth in the absence of both extract and antibiotic [1, 8]: 116%
planktonic growth relative to the growth in the absence of both extract and antibiotic [1, 9]: 118%
planktonic growth relative to the growth in the absence of both extract and antibiotic [1, 10]: 128%
planktonic growth relative to the growth in the absence of both extract and antibiotic [1, 11]: 117%
planktonic growth relative to the growth in the absence of both extract and antibiotic [1, 12]: 0%
planktonic growth relative to the growth in the absence of both extract and antibiotic [1, 13]: 0%
planktonic growth relative to the growth in the absence of both extract and antibiotic [1, 14]: 65%
planktonic growth relative to the growth in the absence of both extract and antibiotic [1, 15]: 66%
planktonic growth relative to the growth in the absence of both extract and antibiotic [1, 16]: 65%
planktonic growth relative to the growth in the absence of both extract and antibiotic [1, 17]: 74%
planktonic growth relative to the growth in the absence of both extract and antibiotic [1, 18]: 70%
planktonic growth relative to the growth in the absence of both extract and antibiotic [1, 19]: 67%
planktonic growth relative to the growth in the absence of both extract and antibiotic [1, 20]: 66%
planktonic growth relative to the growth in the absence of both extract and antibiotic [1, 21]: 63%
planktonic growth relative to the growth in the absence of both extract and antibiotic [1, 22]: 0%
planktonic growth relative to the growth in the absence of both extract and antibiotic [1, 23]: 0%
planktonic growth relative to the growth in the absence of both extract and antibiotic [1, 24]: 0%
planktonic growth relative to the growth in the absence of both extract and antibiotic [1, 25]: 40%
planktonic growth relative to the growth in the absence of both extract and antibiotic [1, 26]: 41%
planktonic growth relative to the growth in the absence of both extract and antibiotic [1, 27]: 53%
planktonic growth relative to the growth in the absence of both extract and antibiotic [1, 28]: 55%
planktonic growth relative to the growth in the absence of both extract and antibiotic [1, 29]: 55%
planktonic growth relative to the growth in the absence of both extract and antibiotic [1, 30]: 54%
planktonic growth relative to the growth in the absence of both extract and antibiotic [1, 31]: 46%
planktonic growth relative to the growth in the absence of both extract and antibiotic [1, 32]: 47%
planktonic growth relative to the growth in the absence of both extract and antibiotic [1, 33]: −3%
planktonic growth relative to the growth in the absence of both extract and antibiotic [1, 34]: −3%
planktonic growth relative to the growth in the absence of both extract and antibiotic [1, 35]: −2%
planktonic growth relative to the growth in the absence of both extract and antibiotic [2, 3]: 118%
planktonic growth relative to the growth in the absence of both extract and antibiotic [2, 4]: 117%
planktonic growth relative to the growth in the absence of both extract and antibiotic [2, 5]: 113%
planktonic growth relative to the growth in the absence of both extract and antibiotic [2, 6]: 117%
planktonic growth relative to the growth in the absence of both extract and antibiotic [2, 7]: 110%
planktonic growth relative to the growth in the absence of both extract and antibiotic [2, 8]: 102%
planktonic growth relative to the growth in the absence of both extract and antibiotic [2, 9]: 102%
planktonic growth relative to the growth in the absence of both extract and antibiotic [2, 10]: 102%
planktonic growth relative to the growth in the absence of both extract and antibiotic [2, 11]: 0%
planktonic growth relative to the growth in the absence of both extract and antibiotic [2, 12]: 0%
planktonic growth relative to the growth in the absence of both extract and antibiotic [2, 13]: 0%
planktonic growth relative to the growth in the absence of both extract and antibiotic [2, 14]: 102%
planktonic growth relative to the growth in the absence of both extract and antibiotic [2, 15]: 82%
planktonic growth relative to the growth in the absence of both extract and antibiotic [2, 16]: 88%
planktonic growth relative to the growth in the absence of both extract and antibiotic [2, 17]: 77%
planktonic growth relative to the growth in the absence of both extract and antibiotic [2, 18]: 76%
planktonic growth relative to the growth in the absence of both extract and antibiotic [2, 19]: 77%
planktonic growth relative to the growth in the absence of both extract and antibiotic [2, 20]: 74%
planktonic growth relative to the growth in the absence of both extract and antibiotic [2, 21]: 67%
planktonic growth relative to the growth in the absence of both extract and antibiotic [2, 22]: 0%
planktonic growth relative to the growth in the absence of both extract and antibiotic [2, 23]: 0%
planktonic growth relative to the growth in the absence of both extract and antibiotic [2, 24]: 0%
planktonic growth relative to the growth in the absence of both extract and antibiotic [2, 25]: 48%
planktonic growth relative to the growth in the absence of both extract and antibiotic [2, 26]: 63%
planktonic growth relative to the growth in the absence of both extract and antibiotic [2, 27]: 57%
planktonic growth relative to the growth in the absence of both extract and antibiotic [2, 28]: 60%
planktonic growth relative to the growth in the absence of both extract and antibiotic [2, 29]: 57%
planktonic growth relative to the growth in the absence of both extract and antibiotic [2, 30]: 41%
planktonic growth relative to the growth in the absence of both extract and antibiotic [2, 31]: 57%
planktonic growth relative to the growth in the absence of both extract and antibiotic [2, 32]: 32%
planktonic growth relative to the growth in the absence of both extract and antibiotic [2, 33]: −2%
planktonic growth relative to the growth in the absence of both extract and antibiotic [2, 34]: −3%
planktonic growth relative to the growth in the absence of both extract and antibiotic [2, 35]: 0%
